This note sets out measurements from PMC8543760 (Cell chemical biology, 2018).

The experiment deals with cytoplasmic dynein 1 (Sus scrofa, UniProt A0A287B9W3). The experiment is described as follows: microtubule-stimulated ATPase assay. It counts as biochemical.

Compound `N#CC(=C(O)c1ccc(Cl)cc1Cl)c1nc2ccccc2c(=O)[nH]1` [Ciliobrevin A] gave an IC50 of approximately 84 µM.
